Paper PMC7719162, “Positioning of an unprecedented spiro[5.5]undeca ring system into kinase inhibitor space” (Scientific Reports, 2020)
Like-named read-outs stand apart in the source and are kept apart here.

What was measured:
[1] = biological target: T1, ARK5/NUAK1 (Homo sapiens, UniProt O60285); experiment: Kinase panel assay (radiolabelled); assay type: biochemical; conditions: ATP 10 μM
T1 construct: purchased Reaction Biology Corp
T1 sequence (O60285 1-661): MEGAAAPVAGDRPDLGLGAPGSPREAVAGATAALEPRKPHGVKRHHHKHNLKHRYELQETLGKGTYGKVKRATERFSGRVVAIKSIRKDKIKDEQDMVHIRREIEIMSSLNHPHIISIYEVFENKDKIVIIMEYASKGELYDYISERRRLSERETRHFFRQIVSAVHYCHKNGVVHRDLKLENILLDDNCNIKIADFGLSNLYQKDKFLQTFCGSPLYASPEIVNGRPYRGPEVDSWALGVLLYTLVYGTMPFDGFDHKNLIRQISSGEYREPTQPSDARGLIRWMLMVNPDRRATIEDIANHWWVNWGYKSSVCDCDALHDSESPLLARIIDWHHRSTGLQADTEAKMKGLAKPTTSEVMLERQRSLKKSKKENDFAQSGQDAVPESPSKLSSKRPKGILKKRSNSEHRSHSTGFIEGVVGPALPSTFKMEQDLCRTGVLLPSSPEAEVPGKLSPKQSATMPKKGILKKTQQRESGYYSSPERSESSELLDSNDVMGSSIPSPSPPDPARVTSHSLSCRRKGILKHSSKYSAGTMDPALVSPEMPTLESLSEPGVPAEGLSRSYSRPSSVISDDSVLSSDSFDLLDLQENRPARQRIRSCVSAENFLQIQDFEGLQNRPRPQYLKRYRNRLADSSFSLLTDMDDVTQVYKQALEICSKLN

[2] = tested on: NO production in LPS-activated BV-2 cells; experiment: NO production assay (Griess) in LPS-activated BV-2 cells; assay type: cell-based, murine; conditions: read-out: NO Inhibition IC50
Experimental: 3-(4,5-dimethylthiazol-2-yl)-2,5-diphenyl-tetrazolium bromide (MTT) assay was performed to evaluate the cytotoxicity of the samples to the microglia. BV2 cells at the density of 4 × 10^4 cells /well were seeded in the 96 well plate and incubated for 24 h. Seeded cells were pre-treated with different concentration of the samples, and LPS (100 ng/ml) activation was performed after 30 min of compound treatment. Treated plate were incubated for 24 h in the incubator and nitric oxide assay and cell viability assay was performed. Treated cell’s conditioned medium was used to evaluate the NO assay, and the attached cells were used to evaluate the cell viability assay. 50 µL of conditioned medium (CM) from treated cells were transferred to a new 96 well plate for NO assay. This CM was mixed with the equal volume of the mixture of Gries reagent ((1% sulfanilamide and 0.1% N-1-napthylethylenediamine dihydrochloride). NaNO2 was used as standard and the colorimetric change were evidenced by measuring its OD at 540 nm in a microplate reader. The cells in the plate were incubated for 1 h with MTT solution making it the final concentration of […]. Blue stained cells were incubated with 200 ul of DMSO and the solution get changed to purple/formazan color and it was observed by measuring the absorbance at 570 nm in a microplate reader.NG-mono-methyl-L-arginine (L-NMMA), a well-known nitric oxide synthase (NOS) inhibitor, was used as a positive control.

[3] = biological target: T2, P38b/MAPK11 (Homo sapiens, UniProt Q15759); experiment: Kinase panel assay (radiolabelled); assay type: biochemical; conditions: ATP 10 μM
T2 construct: purchased Reaction Biology Corp

[4] = biological target: T3, PI3Kb (p110b/p85a) (Homo sapiens, UniProt P42338); experiment: Kinase panel assay (lipid kinase); assay type: biochemical; conditions: 30 μM compound, ATP 10 μM, duplicates Data 1/Data 2
T3 construct: purchased Reaction Biology Corp

[5] = biological target: T4, AMPK(A2/B2/G1) (Homo sapiens, UniProt O43741+P54619+P54646); experiment: Kinase panel assay (radiolabelled); assay type: biochemical; conditions: 30 μM compound, ATP 10 μM; duplicates Data 1/Data 2; read-out: % Enzyme Activity (relative to DMSO controls)
T4 construct: purchased Reaction Biology Corp

[6] = biological target: T5, AMPK(A2/B2/G1) (Homo sapiens, UniProt P54646); experiment: Kinase panel assay (radiolabelled); assay type: biochemical; conditions: 30 μM compound, ATP 10 μM; duplicates Data 1/Data 2
T5 construct: purchased Reaction Biology Corp

[7] = biological target: T6, PI3K (p110a(E545K)/p85a) (Homo sapiens, UniProt P42336, E545K); experiment: Kinase panel assay (lipid kinase); assay type: biochemical; conditions: 30 μM compound, ATP 10 μM, duplicates Data 1/Data 2
T6 construct: purchased Reaction Biology Corp

[8] = biological target: T7, ZIPK/DAPK3 (Homo sapiens, UniProt O43293); experiment: Kinase panel assay (radiolabelled); assay type: biochemical; conditions: ATP 10 μM
T7 construct: purchased Reaction Biology Corp

[9] = biological target: T8, RIPK5 (Homo sapiens, UniProt Q6XUX3); conditions: cited from earlier work
T8 construct: purchased Reaction Biology Corp
T8 sequence (Q6XUX3 1-929): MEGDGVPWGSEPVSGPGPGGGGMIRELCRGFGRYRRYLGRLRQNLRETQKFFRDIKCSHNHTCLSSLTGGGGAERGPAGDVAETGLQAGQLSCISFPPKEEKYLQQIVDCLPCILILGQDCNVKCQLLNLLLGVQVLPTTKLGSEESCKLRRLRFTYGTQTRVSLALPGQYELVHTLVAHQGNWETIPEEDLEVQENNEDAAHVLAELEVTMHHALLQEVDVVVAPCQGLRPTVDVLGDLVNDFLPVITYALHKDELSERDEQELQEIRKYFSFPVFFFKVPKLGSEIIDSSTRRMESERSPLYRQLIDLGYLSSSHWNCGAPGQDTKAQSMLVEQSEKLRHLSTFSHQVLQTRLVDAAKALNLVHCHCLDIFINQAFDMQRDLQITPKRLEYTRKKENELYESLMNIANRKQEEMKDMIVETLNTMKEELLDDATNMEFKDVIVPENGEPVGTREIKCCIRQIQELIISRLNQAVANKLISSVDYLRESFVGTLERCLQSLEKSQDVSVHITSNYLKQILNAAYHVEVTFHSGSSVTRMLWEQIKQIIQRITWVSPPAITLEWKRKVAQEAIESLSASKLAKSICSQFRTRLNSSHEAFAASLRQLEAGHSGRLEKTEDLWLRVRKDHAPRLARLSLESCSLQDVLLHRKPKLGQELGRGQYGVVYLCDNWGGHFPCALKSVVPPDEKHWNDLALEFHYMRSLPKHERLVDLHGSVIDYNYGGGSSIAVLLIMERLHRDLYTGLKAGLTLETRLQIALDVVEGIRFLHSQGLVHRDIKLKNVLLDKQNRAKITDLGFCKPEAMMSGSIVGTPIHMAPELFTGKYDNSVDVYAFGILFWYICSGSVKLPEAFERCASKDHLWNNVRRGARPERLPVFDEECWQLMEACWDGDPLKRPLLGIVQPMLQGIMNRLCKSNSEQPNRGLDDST

[10] = biological target: T9, JNK1 (Homo sapiens, UniProt P45983); conditions: cited from earlier work
T9 construct: purchased Reaction Biology Corp

[11] = biological target: T10, PKN2/PRK2 (Homo sapiens, UniProt Q16513); conditions: cited from earlier work
T10 construct: purchased Reaction Biology Corp

[12] = 30 μM compound, duplicates Data 1/Data 2
[13] = 30 μM compound, duplicates Data 1/Data 2, read-out: % Enzyme Activity (relative to DMSO controls)
[14] = 30 μM, average ± SD, read-out: % Residual Activity at 30 μM
[15] = read-out: % Enzyme Activity (relative to DMSO controls)

T7 sequence (O43293 whole entry): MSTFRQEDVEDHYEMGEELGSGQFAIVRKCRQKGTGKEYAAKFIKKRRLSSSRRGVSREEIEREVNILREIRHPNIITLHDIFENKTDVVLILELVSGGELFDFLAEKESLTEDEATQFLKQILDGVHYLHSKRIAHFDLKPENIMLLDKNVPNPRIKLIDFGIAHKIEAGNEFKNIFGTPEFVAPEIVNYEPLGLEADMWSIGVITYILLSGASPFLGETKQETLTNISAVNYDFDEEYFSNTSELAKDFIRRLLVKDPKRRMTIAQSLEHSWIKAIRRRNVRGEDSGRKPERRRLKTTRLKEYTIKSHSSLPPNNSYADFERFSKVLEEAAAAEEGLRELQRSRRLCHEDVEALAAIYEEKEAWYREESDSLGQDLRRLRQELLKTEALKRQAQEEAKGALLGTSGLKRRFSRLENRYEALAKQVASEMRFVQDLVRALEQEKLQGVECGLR
T2 sequence (Q15759 whole entry): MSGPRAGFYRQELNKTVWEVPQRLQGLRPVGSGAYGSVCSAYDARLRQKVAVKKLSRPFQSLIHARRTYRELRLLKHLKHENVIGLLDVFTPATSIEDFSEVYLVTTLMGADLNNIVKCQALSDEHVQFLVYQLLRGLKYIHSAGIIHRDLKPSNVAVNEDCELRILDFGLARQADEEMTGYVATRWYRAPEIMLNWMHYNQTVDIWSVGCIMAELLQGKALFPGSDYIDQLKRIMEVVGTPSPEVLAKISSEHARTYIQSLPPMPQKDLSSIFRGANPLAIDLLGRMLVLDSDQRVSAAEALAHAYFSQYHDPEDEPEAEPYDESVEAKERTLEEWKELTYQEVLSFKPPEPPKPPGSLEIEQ
T3 sequence (P42338 whole entry): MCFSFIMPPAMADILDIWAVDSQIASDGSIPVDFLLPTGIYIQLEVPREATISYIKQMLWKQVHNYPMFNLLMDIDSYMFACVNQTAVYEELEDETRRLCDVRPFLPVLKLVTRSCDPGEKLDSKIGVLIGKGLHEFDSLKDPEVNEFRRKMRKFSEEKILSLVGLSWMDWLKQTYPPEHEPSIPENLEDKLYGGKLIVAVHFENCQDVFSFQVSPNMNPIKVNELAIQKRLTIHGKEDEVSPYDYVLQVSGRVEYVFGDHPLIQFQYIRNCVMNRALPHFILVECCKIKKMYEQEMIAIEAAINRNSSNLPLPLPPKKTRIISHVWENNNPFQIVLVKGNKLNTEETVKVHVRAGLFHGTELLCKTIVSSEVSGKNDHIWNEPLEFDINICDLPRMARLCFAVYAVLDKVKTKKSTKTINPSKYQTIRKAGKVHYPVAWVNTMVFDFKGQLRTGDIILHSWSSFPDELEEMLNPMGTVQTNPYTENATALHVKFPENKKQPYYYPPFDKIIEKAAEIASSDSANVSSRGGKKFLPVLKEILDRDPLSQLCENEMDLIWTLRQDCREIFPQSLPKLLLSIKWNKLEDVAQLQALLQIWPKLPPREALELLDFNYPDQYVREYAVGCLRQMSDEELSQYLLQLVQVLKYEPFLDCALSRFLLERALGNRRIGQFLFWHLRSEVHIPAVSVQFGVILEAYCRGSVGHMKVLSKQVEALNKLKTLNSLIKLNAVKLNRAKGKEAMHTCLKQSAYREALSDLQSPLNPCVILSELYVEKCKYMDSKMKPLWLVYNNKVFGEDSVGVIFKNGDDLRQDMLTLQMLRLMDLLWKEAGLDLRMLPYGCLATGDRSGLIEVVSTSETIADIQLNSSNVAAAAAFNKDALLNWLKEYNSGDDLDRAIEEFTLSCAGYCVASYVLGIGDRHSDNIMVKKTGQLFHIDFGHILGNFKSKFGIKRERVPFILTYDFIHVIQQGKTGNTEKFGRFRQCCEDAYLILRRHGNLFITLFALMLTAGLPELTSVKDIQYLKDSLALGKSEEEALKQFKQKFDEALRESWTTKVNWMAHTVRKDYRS
T3 sequence (P27986 whole entry partner): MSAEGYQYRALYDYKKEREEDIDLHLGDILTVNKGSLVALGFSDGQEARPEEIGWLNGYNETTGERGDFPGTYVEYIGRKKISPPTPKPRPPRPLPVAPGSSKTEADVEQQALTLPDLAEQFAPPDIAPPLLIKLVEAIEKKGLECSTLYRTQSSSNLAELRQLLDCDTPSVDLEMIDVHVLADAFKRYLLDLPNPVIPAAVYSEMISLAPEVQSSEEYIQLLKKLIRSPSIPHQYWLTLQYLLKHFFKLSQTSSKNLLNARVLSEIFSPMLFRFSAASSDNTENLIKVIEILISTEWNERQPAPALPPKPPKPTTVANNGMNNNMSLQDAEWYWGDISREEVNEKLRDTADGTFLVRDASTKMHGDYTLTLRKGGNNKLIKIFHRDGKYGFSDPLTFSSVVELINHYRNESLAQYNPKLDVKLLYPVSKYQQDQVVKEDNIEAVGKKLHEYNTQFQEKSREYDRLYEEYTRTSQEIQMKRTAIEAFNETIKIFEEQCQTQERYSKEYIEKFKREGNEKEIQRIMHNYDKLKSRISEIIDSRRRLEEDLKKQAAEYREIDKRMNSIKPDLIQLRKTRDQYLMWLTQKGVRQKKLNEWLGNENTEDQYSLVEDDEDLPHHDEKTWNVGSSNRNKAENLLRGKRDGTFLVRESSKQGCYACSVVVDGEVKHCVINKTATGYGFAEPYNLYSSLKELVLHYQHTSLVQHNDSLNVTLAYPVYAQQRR
T6 sequence (P42336 whole entry E545K): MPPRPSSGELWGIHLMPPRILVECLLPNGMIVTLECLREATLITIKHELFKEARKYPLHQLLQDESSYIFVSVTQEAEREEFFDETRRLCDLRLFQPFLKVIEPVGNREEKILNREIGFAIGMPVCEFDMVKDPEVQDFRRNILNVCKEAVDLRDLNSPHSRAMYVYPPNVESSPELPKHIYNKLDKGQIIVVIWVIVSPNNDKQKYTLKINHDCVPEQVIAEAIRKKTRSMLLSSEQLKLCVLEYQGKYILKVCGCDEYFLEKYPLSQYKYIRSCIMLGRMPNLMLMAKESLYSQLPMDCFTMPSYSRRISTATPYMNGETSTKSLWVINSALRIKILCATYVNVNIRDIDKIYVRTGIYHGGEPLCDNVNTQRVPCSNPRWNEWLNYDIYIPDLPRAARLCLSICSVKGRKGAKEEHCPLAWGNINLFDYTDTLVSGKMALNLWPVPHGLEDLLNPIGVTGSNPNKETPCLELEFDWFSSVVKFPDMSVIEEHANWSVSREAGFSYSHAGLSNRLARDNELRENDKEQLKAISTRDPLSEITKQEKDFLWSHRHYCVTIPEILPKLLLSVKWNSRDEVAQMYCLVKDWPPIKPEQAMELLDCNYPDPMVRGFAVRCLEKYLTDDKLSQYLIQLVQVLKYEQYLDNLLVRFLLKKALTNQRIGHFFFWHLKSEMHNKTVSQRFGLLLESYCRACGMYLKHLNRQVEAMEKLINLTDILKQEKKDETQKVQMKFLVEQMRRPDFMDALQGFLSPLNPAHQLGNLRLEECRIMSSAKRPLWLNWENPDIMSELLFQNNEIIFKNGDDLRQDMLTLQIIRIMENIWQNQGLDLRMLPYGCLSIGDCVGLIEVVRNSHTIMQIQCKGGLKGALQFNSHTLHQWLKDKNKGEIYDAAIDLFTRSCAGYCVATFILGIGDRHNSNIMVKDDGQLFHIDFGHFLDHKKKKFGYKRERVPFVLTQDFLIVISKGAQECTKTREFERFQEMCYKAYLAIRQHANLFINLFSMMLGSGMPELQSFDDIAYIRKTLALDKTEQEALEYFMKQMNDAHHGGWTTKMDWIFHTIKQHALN
T6 sequence (P27986 whole entry partner): as the sequence (P27986 whole entry partner) above
T5 sequence (P54646 whole entry): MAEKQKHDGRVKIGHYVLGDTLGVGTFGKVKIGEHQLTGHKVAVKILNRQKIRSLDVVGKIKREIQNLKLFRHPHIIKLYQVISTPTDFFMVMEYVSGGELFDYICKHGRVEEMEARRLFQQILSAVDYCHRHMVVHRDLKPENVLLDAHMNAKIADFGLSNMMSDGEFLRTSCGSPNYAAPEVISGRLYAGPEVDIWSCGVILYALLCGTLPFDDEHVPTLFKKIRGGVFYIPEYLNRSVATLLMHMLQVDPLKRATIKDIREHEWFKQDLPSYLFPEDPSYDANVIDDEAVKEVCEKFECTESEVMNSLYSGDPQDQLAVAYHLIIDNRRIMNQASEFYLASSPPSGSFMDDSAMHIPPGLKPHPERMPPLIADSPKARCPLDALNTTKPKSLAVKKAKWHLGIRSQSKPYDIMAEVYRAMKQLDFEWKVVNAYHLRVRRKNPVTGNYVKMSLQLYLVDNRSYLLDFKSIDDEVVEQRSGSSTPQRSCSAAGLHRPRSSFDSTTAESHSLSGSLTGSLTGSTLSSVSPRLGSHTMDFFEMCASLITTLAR
T5 sequence (O43741 whole entry partner): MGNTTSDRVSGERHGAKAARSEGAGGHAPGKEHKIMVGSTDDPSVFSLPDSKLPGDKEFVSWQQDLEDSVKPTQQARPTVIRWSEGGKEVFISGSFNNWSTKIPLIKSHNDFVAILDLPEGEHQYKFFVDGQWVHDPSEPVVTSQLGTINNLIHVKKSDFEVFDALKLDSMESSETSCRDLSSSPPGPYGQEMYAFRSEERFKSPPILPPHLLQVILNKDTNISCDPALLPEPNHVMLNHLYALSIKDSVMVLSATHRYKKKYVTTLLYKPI
T5 sequence (P54619 whole entry partner): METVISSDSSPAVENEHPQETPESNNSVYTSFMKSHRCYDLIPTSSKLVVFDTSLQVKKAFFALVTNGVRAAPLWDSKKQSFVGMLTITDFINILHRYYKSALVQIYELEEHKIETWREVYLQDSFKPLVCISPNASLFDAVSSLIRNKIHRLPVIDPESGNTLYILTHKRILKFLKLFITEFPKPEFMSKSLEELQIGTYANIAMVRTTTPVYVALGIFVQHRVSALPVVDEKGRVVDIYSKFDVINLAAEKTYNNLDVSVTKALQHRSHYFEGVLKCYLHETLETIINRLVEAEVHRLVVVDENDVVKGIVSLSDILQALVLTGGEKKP
T4 sequence (P54646 whole entry): as the sequence (P54646 whole entry) above
T4 sequence (O43741 whole entry partner): as the sequence (O43741 whole entry partner) above
T4 sequence (P54619 whole entry partner): as the sequence (P54619 whole entry partner) above

IC50 [2] [nM] | SMILES | % Enzyme Activity (relative to DMSO controls) [1, 12] [%] | remaining activity at 30 µM [1, 13] [%] | remaining activity at 30 µM [1, 14] [%] | IC50 ([2]; Mus musculus) [nM] | % Enzyme Activity (relative to DMSO controls) [3, 12] [%] | remaining activity at 30 µM [3, 13] [%] | remaining activity at 30 µM [3, 14] [%] | % Enzyme Activity (relative to DMSO controls) [4] [%] | remaining activity at 30 µM [4, 15] [%] | remaining activity at 30 µM [5] [%] | % Enzyme Activity (relative to DMSO controls) [6] [%] | % Enzyme Activity (relative to DMSO controls) [7] [%] | remaining activity at 30 µM [7, 15] [%] | % Enzyme Activity (relative to DMSO controls) [8, 12] [%] | remaining activity at 30 µM [8, 13] [%] | remaining activity at 30 µM [8, 14] [%] | % Residual Activity at 30 μM [9] [%] | % Residual Activity at 30 μM [10] [%] | % Residual Activity at 30 μM [11] [%]
– | O=C1C=CC2(C=C1)OCC(Cc1cn(-c3cccc(Cl)c3)nn1)C(=O)N2c1ccccc1 (centres unmarked) [2d, 3-((1-(3-Chlorophenyl)-1H-1,2,3-triazol-4-yl)methyl)-5-phenyl-1-oxa-5-azaspiro[5.5]undeca-7,10-diene-4,9-dione] | 84.16 | 93.6 | 88.9 ± 6.7 | 660 | 109.52 | 110 | 109.9 ± 0.5 | 86.58 | 86.3 | 94 | 89.86 | 206.92 | 206 | 86.95 | 88.8 | 87.9 ± 1.3 | – | – | –
70 ± 10 | O=C1C=CC2(C=C1)OCC(Cc1cc(C(F)(F)F)cc(C(F)(F)F)c1)C(=O)N2c1ccccc1 (racemic) [1c] | – | – | – | – | – | – | – | – | – | – | – | – | – | – | – | – | 59.3 ± 1.0 | 35.8 ± 0.3 | 63.5 ± 1.8
